# Data taken from patent US9643930B2, “Substituted indazole derivatives as in vitro MAO-B inhibitors” (“NTZ LAB” LTD., priority 2013, dated 2017).
# Like-named read-outs stand apart in the source and are kept apart here.
# What was measured:
# rat MAO-A = target: T1, rat MAO-A (Rattus norvegicus, UniProt P21396); assay: Rat MAO-A assay (Amplex Red fluorescence, rat liver mitochondria pre-treated with deprenyl); format: biochemical; conditions: for inhibition at 10 µM: read-out: rat MAO-A (rat liver mitochondria) % inhibition at 10 μM
# T1 construct: from tissue; host or cells: rat liver mitochondria (male Sprague-Dawley rats)
# T1 sequence (P21396 1-526): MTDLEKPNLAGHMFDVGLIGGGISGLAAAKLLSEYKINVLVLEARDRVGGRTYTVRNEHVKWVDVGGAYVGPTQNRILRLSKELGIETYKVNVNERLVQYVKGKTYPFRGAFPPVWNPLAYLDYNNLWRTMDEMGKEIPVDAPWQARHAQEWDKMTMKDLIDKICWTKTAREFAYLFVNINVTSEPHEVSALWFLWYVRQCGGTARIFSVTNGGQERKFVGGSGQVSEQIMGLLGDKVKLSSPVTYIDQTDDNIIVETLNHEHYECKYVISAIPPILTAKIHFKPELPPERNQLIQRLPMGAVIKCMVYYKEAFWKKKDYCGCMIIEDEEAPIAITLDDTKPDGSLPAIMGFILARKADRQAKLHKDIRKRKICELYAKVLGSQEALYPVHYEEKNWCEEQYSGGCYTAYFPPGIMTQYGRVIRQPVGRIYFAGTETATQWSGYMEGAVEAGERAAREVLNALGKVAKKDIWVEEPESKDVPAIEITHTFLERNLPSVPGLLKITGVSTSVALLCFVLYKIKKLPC
# human MAO-A = target: T2, human MAO-A (Homo sapiens, UniProt P21397); assay: Human MAO-A assay (recombinant enzyme, Amplex Red fluorescence); conditions: for inhibition at 10 µM: read-out: human MAO-A % inhibition at 10 μM
# T2 sequence (P21397 1-527): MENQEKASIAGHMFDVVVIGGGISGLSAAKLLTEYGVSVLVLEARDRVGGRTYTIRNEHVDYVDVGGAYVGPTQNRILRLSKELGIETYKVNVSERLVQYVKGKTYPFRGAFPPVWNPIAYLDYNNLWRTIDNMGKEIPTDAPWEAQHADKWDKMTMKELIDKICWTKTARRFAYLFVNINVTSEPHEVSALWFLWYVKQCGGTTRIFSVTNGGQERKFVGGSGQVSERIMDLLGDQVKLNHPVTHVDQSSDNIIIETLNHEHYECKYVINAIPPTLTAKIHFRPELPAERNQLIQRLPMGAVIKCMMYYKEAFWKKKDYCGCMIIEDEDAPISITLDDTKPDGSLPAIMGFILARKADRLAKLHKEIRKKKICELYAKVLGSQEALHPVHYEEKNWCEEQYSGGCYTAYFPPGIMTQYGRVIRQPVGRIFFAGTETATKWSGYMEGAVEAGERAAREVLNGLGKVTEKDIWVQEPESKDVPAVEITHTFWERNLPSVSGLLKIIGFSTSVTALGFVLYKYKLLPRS
# rat MAO-B = target: T3, rat MAO-B (Rattus norvegicus, UniProt P19643); assay: Rat MAO-B assay (Amplex Red fluorescence, rat liver mitochondria pre-treated with clorgyline 30 nM); format: biochemical
# T3 construct: from tissue; host or cells: rat liver mitochondria (male Sprague-Dawley rats)
# T3 sequence (P19643 1-520): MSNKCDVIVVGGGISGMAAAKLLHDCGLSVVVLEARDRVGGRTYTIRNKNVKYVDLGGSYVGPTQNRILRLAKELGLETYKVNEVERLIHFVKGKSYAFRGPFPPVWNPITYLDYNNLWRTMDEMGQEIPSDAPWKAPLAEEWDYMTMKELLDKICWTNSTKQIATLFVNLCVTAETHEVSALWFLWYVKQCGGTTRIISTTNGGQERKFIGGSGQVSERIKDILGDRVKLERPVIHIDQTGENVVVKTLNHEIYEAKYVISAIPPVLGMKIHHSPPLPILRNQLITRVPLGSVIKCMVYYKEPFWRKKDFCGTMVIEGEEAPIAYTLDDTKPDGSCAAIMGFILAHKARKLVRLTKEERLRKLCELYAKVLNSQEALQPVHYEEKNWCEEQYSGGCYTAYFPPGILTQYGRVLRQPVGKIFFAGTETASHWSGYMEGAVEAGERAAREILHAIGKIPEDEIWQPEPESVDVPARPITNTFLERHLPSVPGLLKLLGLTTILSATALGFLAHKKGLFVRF
# human MAO-B = target: T4, human MAO-B (Homo sapiens, UniProt P27338); assay: Human MAO-B assay (recombinant enzyme, Amplex Red fluorescence); format: biochemical; set-up: purchased Sigma-Aldrich M7441; host or cells: baculovirus-infected insect cells (microsomal product); conditions: p-tyramine 150 μM
# T4 sequence (P27338 1-520): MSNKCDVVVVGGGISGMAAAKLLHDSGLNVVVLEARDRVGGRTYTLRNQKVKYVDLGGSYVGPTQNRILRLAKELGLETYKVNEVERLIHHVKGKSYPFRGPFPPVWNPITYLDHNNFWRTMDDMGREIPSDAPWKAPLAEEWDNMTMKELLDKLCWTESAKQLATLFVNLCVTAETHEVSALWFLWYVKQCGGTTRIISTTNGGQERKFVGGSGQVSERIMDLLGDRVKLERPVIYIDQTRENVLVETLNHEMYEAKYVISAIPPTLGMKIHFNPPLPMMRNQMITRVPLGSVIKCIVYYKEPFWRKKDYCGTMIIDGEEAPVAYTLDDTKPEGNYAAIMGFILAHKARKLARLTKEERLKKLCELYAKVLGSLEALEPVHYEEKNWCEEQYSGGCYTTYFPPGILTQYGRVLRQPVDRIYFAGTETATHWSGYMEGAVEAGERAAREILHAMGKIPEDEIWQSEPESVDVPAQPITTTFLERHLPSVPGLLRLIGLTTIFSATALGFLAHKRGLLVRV
# [1] = at 10 μM, rat liver mitochondria
# [2] = rat liver mitochondria, substrate p-tyramine, read-out: rat MAO-A (rat liver mitochondria) IC50
# [3] = rat liver mitochondria pre-treated with clorgyline 30 nM, read-out: rat MAO-B (rat liver mitochondria) IC50
# [4] = read-out: human MAO-A IC50, recombinant human enzyme, p-tyramine 150 μM
melting point [°C],Structure (SMILES),inhibition at 10 µM (rat MAO-A; [1]) [%],inhibition at 10 µM (human MAO-A) [%],IC50 (rat MAO-A; [2]) [nM],IC50 (rat MAO-B; [3]) [nM],IC50 (human MAO-A) [nM],IC50 (human MAO-B) [nM],IC50 (human MAO-A; [4]) [nM],inhibition at 10 µM (rat MAO-A) [%],IC50 (rat MAO-A) [nM],IC50 (rat MAO-B) [nM]
–,O=C(Nc1ccc(Cl)c(Cl)c1)c1ccc2[nH]ncc2c1 [Example 1],42,46,–,–,–,–,–,–,–,–
233.8 to 234.8,"O=C(Nc1ccc(Cl)c(Cl)c1)c1ccc2[nH]ccc2c1 [Example 2, N-(3,4-dichlorophenyl)-1H-indole-5-carboxamide]",70,88,–,–,–,–,–,–,–,–
276.2 to 277.8,"COc1ccc(NC(=O)c2ccc3[nH]ncc3c2)cc1Cl [Example 3, N-(3-chloro-4-methoxy)-1H-indazole-5-carboxamide]",13,30,> 10000,21.9 ± 3.4,> 10000,3.42 ± 0.28,–,–,–,–
279.6 to 281.6,"COc1cc(NC(=O)c2ccc3[nH]ncc3c2)ccc1Cl [Example 4, N-(4-chloro-3-methoxy)-1H-indazole-5-carboxamide]",24,62,> 10000,43.1 ± 4.2,–,4.36 ± 0.08,8790 ± 200,–,–,–
272.2 to 273.4,"O=C(Nc1ccc(O)c(Cl)c1)c1ccc2[nH]ncc2c1 [Example 5, N-(3-chloro-4-hydroxyphenyl)-1H-indazole-5-carboxamide]",60,33,< 10000,941 ± 51,> 10000,123 ± 16,–,–,–,–
302.7 to 304.8,"O=C(Nc1cc(Cl)cc(Cl)c1)c1ccc2[nH]ncc2c1 [Example 8, N-(3,5-dichlorophenyl)-1H-indazole-5-carboxamide]",5,65,–,–,< 10000,–,–,–,–,–
–,"O=C(Nc1ccc(F)c(Cl)c1)c1ccc2[nH]ncc2c1 [Example 9, N-(3-chloro-4-fluorophenyl)-1H-indazole-5-carboxamide]",17,40,> 10000,–,> 10000,–,–,–,–,–
–,"O=C(Nc1ccc(Cl)c(F)c1)c1ccc2[nH]ncc2c1 [Example 10, N-(4-chloro-3-fluorophenyl)-1H-indazole-5-carboxamide]",30,55,> 10000,2.61 ± 0.68,< 10000,0.668 ± 0.053,–,–,–,–
–,"O=C(Nc1ccc(F)c(F)c1)c1ccc2[nH]ncc2c1 [Example 11, N-(3,4-difluorophenyl)-1H-indazole-5-carboxamide]",13,36,> 10000,8.89 ± 0.05,> 10000,1.59 ± 0.16,–,–,–,–
–,"O=C(Nc1cnc(Cl)c(Cl)c1)c1ccc2[nH]ncc2c1 [Example 12, N-(5,6-dichloropyridin-3-yl)-1H-indazole-5-carboxamide]",59,52,< 10000,26.6 ± 1.5,< 10000,5.42 ± 0.2,–,–,–,–
–,"Cn1cc2cc(C(=O)Nc3ccc(Cl)c(Cl)c3)ccc2n1 [Example 14, N-(3,4-dichlorophenyl)-2-methyl-2H-indazole-5-carboxamide]",–,–,–,22.5 ± 0.6,–,1.44 ± 0.41,–,–,–,–
178.9 to 180.3,"Cn1ccc2cc(C(=O)Nc3ccc(Cl)c(Cl)c3)ccc21 [Example 16, N-(3,4-dichlorophenyl)-1-methyl-1H-indole-5-carboxamide]",3,13,–,–,–,–,–,–,–,–
–,"Cn1ncc2cc(C(=O)Nc3ccc(F)c(Cl)c3)ccc21 [Example 17, N-(3-chloro-4-fluorophenyl)-1-methyl-1H-indazole-5-carboxamide]",–,–,–,1.36 ± 0.13,–,–,–,29,–,–
–,"Cn1cc2cc(C(=O)Nc3ccc(F)c(Cl)c3)ccc2n1 [Example 18, N-(3-chloro-4-fluorophenyl)-2-methyl-2H-indazole-5-carboxamide]",90,95,1690 ± 143,20.3 ± 3,–,8.08 ± 1.05,562 ± 62,–,–,–
–,"Cn1ncc2cc(C(=O)Nc3ccc(F)c(F)c3)ccc21 [Example 19, N-(3,4-difluorophenyl)-1-methyl-1H-indazole-5-carboxamide]",18,46,> 10000,5.65 ± 0.48,> 10000,1.52 ± 0.18,–,–,–,–
–,"Cn1cc2cc(C(=O)Nc3ccc(F)c(F)c3)ccc2n1 [Example 20, N-(3,4-difluorophenyl)-2-methyl-2H-indazole-5-carboxamide]",83,–,1880 ± 93,221 ± 21,–,38.4 ± 1.8,764 ± 40,–,–,–
–,"COCCn1ncc2cc(C(=O)Nc3ccc(Cl)c(Cl)c3)ccc21 [Example 21, N-(3,4-dichlorophenyl)-1-(2-methoxyethyl)-1H-indazole-5-carboxamide]",57,81,< 10000,–,–,–,–,–,–,–
–,"Clc1ccc(/N=C/c2ccc3[nH]ncc3c2)cc1Cl [Example 22, (E)-N-((1H-indazol-5-yl)methylene)-3,4-dichloroaniline]",43,62,–,–,–,–,–,–,–,–
–,"Fc1cc(/N=C/c2ccc3[nH]ncc3c2)ccc1Cl [Example 23, (E)-N-((1H-indazol-5-yl)methylene)-4-chloro-3-fluoroaniline]",27,44,–,–,> 10000,1.91 ± 0.27,–,–,> 10000,25.2 ± 0.11
–,"Fc1ccc(/N=C/c2ccc3[nH]ncc3c2)cc1Cl [Example 24, (E)-N-((1H-indazol-5-yl)methylene)-3-chloro-4-fluoroaniline]",35,54,–,–,< 10000,2.1 ± 0.3,–,–,> 10000,6.08 ± 0.52
–,"Clc1cc(/N=C/c2ccc3[nH]ncc3c2)cnc1Cl [Example 25, (E)-N-((1H-indazol-5-yl)methylene)-5,6-dichloropyridin-3-amine]",45,67,–,–,< 10000,0.474 ± 0.02,–,–,> 10000,1.48 ± 0.07
–,"Cn1ncc2cc(/C=N/c3ccc(Cl)c(Cl)c3)ccc21 [Example 26, (E)-3,4-dichloro-N-((1-methyl-1H-indazole-5-yl)methylene)aniline]",23,57,–,–,–,–,–,–,–,–
